In ChEMBL document CHEMBL1137794, “Didemnins and tunichlorin: novel natural products from the marine tunicate Trididemnum solidum” (J Nat Prod, 1988):
Converted amounts (≈) assume the structure as drawn. The source made the active and inactive calls. No cut-off for these calls is given here. *1 amine or outer side, *2 acyl side, *3 side chain or, on linkers, in order; H or OH if unused. Where a SMILES comes first, the peptide text is derived from it. Bridges are numbered along the chain shown (N, C = ends). [ ]: non-standard residue; d: D form. X1 = CC[C@H](C)[C@@H](N[*:1])[C@@H](O)CC(=O)O[C@H](C(=O)[C@H](C)C(=O)[*:2])C(C)C; NMeY = CN[C@@H](Cc1ccc(O)cc1)C(=O)O; dNMeL = CN[C@H](CC(C)C)C(=O)O; Lac = C[C@H](O)C(=O)O

Assays:
Mus musculus [1] = assay: Toxicity in mouse B16 cells xenografted mouse assessed as change in body weight at 0.03 mg/kg, ip administered on day 1 to day 9; assay type: organism-based; parameters: dose 0.03 mg/kg, route intraperitoneal; details: in vivo
Mus musculus [2] = assay: Toxicity in mouse B16 cells xenografted mouse at 0.5 mg/kg, ip administered on day 1 to day 9; assay type: organism-based; parameters: dose 0.5 mg/kg, route intraperitoneal; details: in vivo
Mus musculus [3] = assay: Toxicity in mouse B16 cells xenografted mouse assessed as change in body weight at 0.5 mg/kg, ip administered on day 1 to day 9; assay type: organism-based; parameters: dose 0.5 mg/kg, route intraperitoneal; details: in vivo
Mus musculus [4] = species: Mus musculus; assay: Toxicity in mouse; assay type: organism-based; details: in vivo
Mus musculus [5] = assay: Toxicity in mouse P388 cells xenografted mouse assessed as change in body weight at 0.25 mg/kg, ip administered on day 1 to day 9; assay type: organism-based; parameters: dose 0.25 mg/kg, route intraperitoneal; details: in vivo
Yellow fever virus [6] = assay: Antiviral activity against Yellow fever virus infected in rhesus monkey MK2 cells assessed as plaque reduction at 0.05 ug/mL; assay type: functional, organism-based
Mus musculus [7] = assay: Toxicity in mouse P388 cells xenografted mouse assessed as change in body weight at 0.06 mg/kg, ip administered on day 1 to day 9; assay type: organism-based; parameters: dose 0.06 mg/kg, route intraperitoneal; details: in vivo
Canis familiaris = species: Canis familiaris; assay: Toxicity in dog; assay type: organism-based, Canis lupus familiaris; details: in vivo
Mus musculus [8] = assay: Toxicity in mouse P388 cells xenografted mouse assessed as change in body weight at 1 mg/kg, ip administered on day 1, 5 and day 9; assay type: organism-based; parameters: dose 1 mg/kg, route intraperitoneal; details: in vivo
Mus musculus [9] = assay: Toxicity in mouse B16 cells xenografted mouse assessed as change in body weight at 1 mg/kg, ip administered on day 1, 5 and day 9; assay type: organism-based; parameters: dose 1 mg/kg, route intraperitoneal; details: in vivo
Mus musculus [10] = assay: Toxicity in mouse P388 cells xenografted mouse at 0.5 mg/kg, ip administered on day 1 to day 9; assay type: organism-based; parameters: dose 0.5 mg/kg, route intraperitoneal; details: in vivo
Mus musculus [11] = assay: Toxicity in mouse P388 cells xenografted mouse assessed as change in body weight at 0.5 mg/kg, ip administered on day 1, 5 and day 9; assay type: organism-based; parameters: dose 0.5 mg/kg, route intraperitoneal; details: in vivo
Mus musculus [12] = assay: Toxicity in mouse P388 cells xenografted mouse assessed as change in body weight at 0.03 mg/kg, ip administered on day 1, 5 and day 9; assay type: organism-based; parameters: dose 0.03 mg/kg, route intraperitoneal
Mus musculus [13] = species: Mus musculus; assay: Immunosuppressive activity in spleen cells transformed mouse assessed as inhibition of splenomegaly by graft-versus-host reaction assay; assay type: functional, organism-based
Mus musculus [14] = assay: Toxicity in mouse P388 cells xenografted mouse at 0.06 mg/kg, ip administered on day 1 to day 9; assay type: organism-based; parameters: dose 0.06 mg/kg, route intraperitoneal; details: in vivo
Mus musculus [15] = assay: Toxicity in mouse P388 cells xenografted mouse assessed as change in body weight at 1 mg/kg, ip administered on day 1 to day 9; assay type: organism-based; parameters: dose 1 mg/kg, route intraperitoneal; details: in vivo
Rattus norvegicus = species: Rattus norvegicus; assay: Toxicity in rat; assay type: organism-based; details: in vivo
Mus musculus [16] = assay: Toxicity in mouse P388 cells xenografted mouse assessed as change in body weight at 0.06 mg/kg, ip administered on day 1, 5 and day 9; assay type: organism-based; parameters: dose 0.06 mg/kg, route intraperitoneal; details: in vivo
Rift Valley fever virus [17] = assay: Antiviral activity against Rift Valley fever virus infected in african green monkey Vero cells assessed as plaque reduction at 0.05 ug/mL; assay type: functional, organism-based
Mus musculus [18] = assay: Toxicity in mouse P388 cells xenografted mouse assessed as change in body weight at 0.5 mg/kg, ip administered on day 1 to day 9; assay type: organism-based; parameters: dose 0.5 mg/kg, route intraperitoneal; details: in vivo
Mus musculus [19] = assay: Toxicity in mouse B16 cells xenografted mouse assessed as change in body weight at 0.06 mg/kg, ip administered on day 1, 5 and day 9; assay type: organism-based; parameters: dose 0.06 mg/kg, route intraperitoneal; details: in vivo
Mus musculus [20] = assay: Toxicity in mouse P388 cells xenografted mouse assessed as change in body weight at 0.25 mg/kg, ip administered on day 1, 5 and day 9; assay type: organism-based; parameters: dose 0.25 mg/kg, route intraperitoneal; details: in vivo
Mus musculus [21] = assay: Toxicity in mouse B16 cells xenografted mouse assessed as change in body weight at 0.25 mg/kg, ip administered on day 1 to day 9; assay type: organism-based; parameters: dose 0.25 mg/kg, route intraperitoneal; details: in vivo
Mus musculus [22] = assay: Toxicity in mouse B16 cells xenografted mouse assessed as change in body weight at 0.25 mg/kg, ip administered on day 1, 5 and day 9; assay type: organism-based; parameters: dose 0.25 mg/kg, route intraperitoneal; details: in vivo
[23] = tested on: Venezuelan equine encephalitis virus; assay: Antiviral activity against Venezuelan equine encephalomyelitis virus infected in african green monkey Vero cells assessed as plaque reduction at 0.05 ug/mL; assay type: functional, organism-based
[24] = tested on: Sandfly fever Sicilian virus; assay: Antiviral activity against Sandfly fever virus assessed as plaque reduction at 0.05 ug/mL; assay type: functional, organism-based
Mus musculus [25] = assay: Toxicity in mouse B16 cells xenografted mouse assessed as change in body weight at 0.5 mg/kg, ip administered on day 1, 5 and day 9; assay type: organism-based; parameters: dose 0.5 mg/kg, route intraperitoneal; details: in vivo
Mus musculus [26] = assay: Toxicity in mouse B16 cells xenografted mouse assessed as change in body weight at 0.06 mg/kg, ip administered on day 1 to day 9; assay type: organism-based; parameters: dose 0.06 mg/kg, route intraperitoneal; details: in vivo
T-cell [27] = assay: Immunosuppressive activity in baboon T cell assessed as inhibition of mitogenesis; details: Papio hamadryas
T-cell [28] = assay: Immunosuppressive activity in human T cell assessed as inhibition of mitogenesis; assay type: functional, cell-based
Lymphocyte [29] = assay: Immunosuppressive activity in baboon lymphocytes by mixed lymphocyte reaction assay; details: Papio hamadryas
T-cell [30] = assay: Immunosuppressive activity in rat T cell assessed as inhibition of mitogenesis
Lymphocyte [31] = assay: Immunosuppressive activity in human lymphocytes by mixed lymphocyte reaction assay; assay type: functional, cell-based
B cell = assay: Immunosuppressive activity in human B cell assessed as inhibition of mitogenesis
Lymphocyte [32] = assay: Immunosuppressive activity in human lymphocytes assessed as inhibition of protein synthesis
L1210 = assay: Cytotoxicity against mouse L1210 cells; assay type: functional; details: read-out: ID50 (the source's name)
P388 = assay: Antitumor activity against mouse P388 cells xenografted mouse assessed as extend the life time at 0.03 to 1 mg/kg, ip; assay type: functional; details: dose mg/kg 0.03-1; route intraperitoneal
Yellow fever virus [33] = assay: Antiviral activity against Yellow fever virus infected in rhesus monkey MK2 cells assessed as plaque reduction at 250 ug/mL; assay type: functional, organism-based
Rift Valley fever virus [34] = assay: Antiviral activity against Rift Valley fever virus infected in african green monkey Vero cells assessed as plaque reduction at 250 ug/mL; assay type: functional, organism-based
[35] = tested on: Sandfly fever Sicilian virus; assay: Antiviral activity against Sandfly fever virus assessed as plaque reduction at 250 ug/mL; assay type: functional, organism-based
[36] = tested on: Venezuelan equine encephalitis virus; assay: Antiviral activity against Venezuelan equine encephalomyelitis virus infected in african green monkey Vero cells assessed as plaque reduction at 250 ug/mL; assay type: functional, organism-based

CC[C@H](C)[C@H]1NC(=O)[C@@H](NC(=O)[C@@H](CC(C)C)N(C)C(=O)[C@@H]2CCCN2C(=O)C(C)O)[C@@H](C)OC(=O)[C@H](Cc2ccc(OC)cc2)N(C)C(=O)[C@@H]2CCCN2C(=O)[C@H](CC(C)C)NC(=O)[C@@H](C)C(=O)[C@H](C(C)C)OC(=O)C[C@@H]1O (some centres not stated) [DIDEMNIN B]
Activity (Mus musculus [1]): 0.8 g
Activity (Mus musculus [2]): Toxic
Activity (Mus musculus [3]): -4.5 g
Activity (Mus musculus [4]): Toxic
Activity (Mus musculus [5]): -2.2 g
Activity (Yellow fever virus [6]): Active
Activity (Mus musculus [7]): 0.1 g
Activity (Canis familiaris): Toxic
Activity (Mus musculus [8]): -3.8 g
Activity (Mus musculus [9]): -3.2 g
Activity (Mus musculus [10]): Toxic
Activity (Mus musculus [11]): -1.7 g
body weight change (Mus musculus [12]): 1600 mg
inhibition (Mus musculus [13]): Dose-dependent effect
Activity (Mus musculus [14]): Toxic
Activity (Mus musculus [15]): Toxic
Activity (Rattus norvegicus): Toxic
Activity (Mus musculus [16]): 1.2 g
Activity (Rift Valley fever virus [17]): Active
Activity (Mus musculus [18]): -3.4 g
Activity (Mus musculus [19]): 1.2 g
Activity (Mus musculus [20]): -0.5 g
Activity (Mus musculus [21]): -3.3 g
Activity (Mus musculus [22]): 0.3 g
Activity [23]: Active
Activity [24]: Active
Activity (Mus musculus [25]): -1.3 g
Activity (Mus musculus [26]): -0.4 g

Cn1cnc([N+](=O)[O-])c1Sc1ncnc2[nH]cnc12 [AZATHIOPRINE]
IC50 (T-cell [27]): 0.4 µg/mL (≈ 1.44 µM)
IC50 (T-cell [28]): 9 µg/mL (≈ 32.5 µM)
IC50 (Lymphocyte [29]): 2.9 µg/mL (≈ 10.5 µM)
IC50 (T-cell [30]): 2 µg/mL (≈ 7.21 µM)
IC50 (Lymphocyte [31]): 3 µg/mL (≈ 10.8 µM)
IC50 (B cell): 1 µg/mL (≈ 3.61 µM)
IC50 (Lymphocyte [32]): 85 µg/mL (≈ 307 µM)

CC[C@H](C)[C@H]1NC(=O)[C@@H](NC(=O)[C@@H](CC(C)C)N(C)C(=O)[C@H](C)O)[C@@H](C)OC(=O)[C@H](Cc2ccc(OC)cc2)N(C)C(=O)[C@@H]2CCCN2C(=O)[C@H](CC(C)C)NC(=O)[C@@H](C)C(=O)[C@H](C(C)C)OC(=O)C[C@@H]1O [DIDEMNIN C] (H-[Lac][dNMeL]T[X1]LP[NMeY](Me); ester 3-C)
IC50 (L1210): 0.002 µg/mL (≈ 0.00197 µM)

CC[C@H](C)[C@H]1NC(=O)[C@@H](NC(=O)[C@@H](CC(C)C)NC)[C@@H](C)OC(=O)[C@H](Cc2ccc(OC)cc2)N(C)C(=O)[C@@H]2CCCN2C(=O)[C@H](CC(C)C)NC(=O)[C@@H](C)C(=O)[C@H](C(C)C)OC(=O)C[C@@H]1O [DIDEMNIN A] (H-[dNMeL]T[X1]LP[NMeY](Me); ester 2-C)
Activity (P388): 100%
IC50 (L1210): 0.002 µg/mL (≈ 0.00212 µM)

NC(=O)c1ncn([C@@H]2O[C@H](CO)[C@@H](O)[C@H]2O)n1
Activity (Yellow fever virus [33]): Active
Activity (Rift Valley fever virus [34]): Active
Activity [35]: Active
Activity [36]: Active
